Results as given in ChEMBL document CHEMBL1158745, “Guttiferone I, a new prenylated benzophenone from Garcinia humilis as a liver X receptor ligand” (J Nat Prod, 2005).

Experiments:
[1] = target: T1, Oxysterols receptor LXR-alpha (Homo sapiens, UniProt Q13133); assay: Displacement of [3H2]F3-methylAA from human LXRalpha expressed in Escherichia coli BL21 cells by scintillation proximity assay
T1 sequence (Q13133 whole entry): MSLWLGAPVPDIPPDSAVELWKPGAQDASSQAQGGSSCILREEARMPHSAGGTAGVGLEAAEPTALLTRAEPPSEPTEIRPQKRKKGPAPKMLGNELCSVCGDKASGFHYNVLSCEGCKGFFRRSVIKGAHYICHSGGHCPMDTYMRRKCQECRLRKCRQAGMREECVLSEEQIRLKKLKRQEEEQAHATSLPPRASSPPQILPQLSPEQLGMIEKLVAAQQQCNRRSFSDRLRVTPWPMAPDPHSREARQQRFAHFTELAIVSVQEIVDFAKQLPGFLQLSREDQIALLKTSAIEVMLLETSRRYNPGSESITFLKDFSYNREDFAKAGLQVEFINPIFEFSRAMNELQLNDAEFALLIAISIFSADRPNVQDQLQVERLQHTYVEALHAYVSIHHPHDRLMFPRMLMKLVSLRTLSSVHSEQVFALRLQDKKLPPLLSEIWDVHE

[2] = target: T2, Oxysterols receptor LXR-beta (Homo sapiens, UniProt P55055); assay: Displacement of [3H2]F3-methylAA from human LXRbeta expressed in Escherichia coli BL21 cells by scintillation proximity assay
T2 sequence (P55055 whole entry): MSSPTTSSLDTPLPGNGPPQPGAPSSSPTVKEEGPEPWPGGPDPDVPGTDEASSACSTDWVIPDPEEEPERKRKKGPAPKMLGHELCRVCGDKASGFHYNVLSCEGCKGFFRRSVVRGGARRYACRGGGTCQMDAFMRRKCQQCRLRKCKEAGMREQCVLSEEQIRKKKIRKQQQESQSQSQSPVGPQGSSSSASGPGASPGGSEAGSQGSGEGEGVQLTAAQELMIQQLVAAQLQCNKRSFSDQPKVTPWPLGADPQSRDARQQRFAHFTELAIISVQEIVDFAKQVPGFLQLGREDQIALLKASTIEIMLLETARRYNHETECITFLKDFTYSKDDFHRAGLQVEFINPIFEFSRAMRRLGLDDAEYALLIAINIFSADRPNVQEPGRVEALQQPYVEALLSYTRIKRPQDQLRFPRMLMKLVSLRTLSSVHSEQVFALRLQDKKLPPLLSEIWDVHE

[3] = target: Liver X receptor (LXR alpha AND LXR beta) (Homo sapiens) (UniProt Q13133+P55055); assay: Selectivity ratio of IC50 for human LXRbeta to IC50 for human LXRalpha; assay type: protein assay

CC(C)=CCC/C(C)=C/C[C@H]1C[C@]2(CC=C(C)C)C(=O)[C@@](CC=C(C)C)(C(=O)C(C(=O)c3ccc(O)c(O)c3)=C2O)[C@]1(C)CCC=C(C)C [GUTTIFERONE I]
IC50 [1]: 3.4 µM
IC50 [2]: > 15 µM
Ratio IC50 [3]: 5
